The text below walks through data of ChEMBL document CHEMBL1122015, “Rigid analogues of dopamine: synthesis and interaction of 6-exo- and 6-endo-(3',4'-dihydroxyphenyl)-2-azabicyclo[2.2.2]octanes with dopamine uptake sites and receptors” (J Med Chem, 1982).

As usually defined, the IC50 is the midpoint of a concentration-inhibition curve.

The species entered for assay [1] is Rattus norvegicus. Put plainly: Effect on DA-sensitive adenylate cyclase activity in rat striatal homogenates. Format: functional.
The species entered for assay [2] is Rattus norvegicus. Put plainly: Reported to half-maximally effective concentration of reserpine-pretreated rat.
The species named for assay [3] is Rattus norvegicus. Put plainly: Inhibition of the uptake of [3H]DA by corpus striatum synaptosomes of reserpine-pretreated rat. Format: functional.

`NCCc1ccc(O)c(O)c1` showed an Activity in assay [1] of 210%.
In the case of `N[C@H]1C[C@@H]1c1ccccc1` (racemic), the 50% inhibitory concentration (IC50) was determined as 1.7 µM in assay [2] and 0.9 µM in assay [3] (Rattus norvegicus, Corpus striatum).
On to `Oc1ccc([C@H]2CC3CC[C@H]2NC3)cc1O` (relative stereo) [listing 1 of 2 here], for which, in assay [3], the 50% inhibitory concentration (IC50) came out at 32 µM.
The compound `Oc1ccc([C@H]2CC3CC[C@H]2NC3)cc1O` (relative stereo) [listing 2 of 2 here] returned an Activity in assay [1] of 93%.
Turning to `Oc1ccc([C@H]2CC3CC[C@H]2NC3)cc1O` (stereo in doubt; 1) [listing 1 of 2 here], in assay [3], the IC50 was determined as 110 µM.
Turning to `Oc1ccc([C@H]2CC3CC[C@H]2NC3)cc1O` (stereo in doubt; 1) [listing 2 of 2 here], the Activity in assay [1] is 117%.
